Measurements reported in ChEMBL document CHEMBL1667832, “Potent and selective cyclohexyl-derived imidazopyrazine insulin-like growth factor 1 receptor inhibitors with in vivo efficacy” (Bioorg Med Chem Lett, 2011).

Experiments:
[1] = AUC in mouse at 5 mg/kg, po; format: ADME, organism-based; parameters: dose 5 mg/kg, route oral; details: plasma
[2] = Permeability of the compound at pH 7.4 by PAMPA; format: ADME; details: read-out: permeability
[3] = Permeability of the compound at pH 5 by PAMPA; format: ADME; details: read-out: permeability
[4] = Cmax in mouse at 5 mg/kg, po; format: ADME, organism-based; parameters: dose 5 mg/kg, route oral; details: in vivo
[5] = Oral bioavailability in mouse at 5 mg/kg; format: ADME, organism-based; details: in vivo
[6] = Clearance in mouse at 2 mg/kg, iv; format: ADME, organism-based; parameters: dose 2 mg/kg, route intravenous; details: in vivo
[7] = Volume of distribution at steady state in mouse at 2 mg/kg, iv; format: ADME, organism-based; parameters: dose 2 mg/kg, route intravenous; details: in vivo, read-out: Vdss
[8] = Oral bioavailability in mouse at 25 mg/kg; format: ADME, organism-based; details: in vivo
[9] = AUC in mouse at 25 mg/kg, po; format: ADME, organism-based; parameters: dose 25 mg/kg, route oral; details: plasma
[10] = Cmax in mouse at 25 mg/kg, po; format: ADME, organism-based; parameters: dose 25 mg/kg, route oral; details: in vivo
[11] = Volume of distribution at steady state in mouse at 5 mg/kg, iv; format: ADME, organism-based; parameters: dose 5 mg/kg, route intravenous; details: in vivo, read-out: Vdss
[12] = Clearance in mouse at 5 mg/kg, iv; format: ADME, organism-based; parameters: dose 5 mg/kg, route intravenous; details: in vivo
[13] = Physiological stability of the compound in simulated intestinal fluid assessed as formation of 4-(8-amino-1-(8-fluoro-2-phenylquinolin-7-yl)imidazo[1,5-a]pyrazin-3-yl)cyclohexanecarboxylic acid; format: physicochemical; details: simulated gi fluid
[14] = Physiological stability of the compound in simulated intestinal fluids assessed as formation of 4-(8-amino-1-(8-fluoro-2-phenylquinolin-7-yl)imidazo[1,5-a]pyrazin-3-yl)cyclohexanecarboxylic acid at 2 uM; format: physicochemical; details: simulated gi fluid
Cytochrome P450 2C9 = Cytochrome P450 2C9 (Homo sapiens, UniProt P11712); experiment: Inhibition of CYP2C9; format: ADME
Chain of Cytochrome P450 2C9 (P11712 whole entry): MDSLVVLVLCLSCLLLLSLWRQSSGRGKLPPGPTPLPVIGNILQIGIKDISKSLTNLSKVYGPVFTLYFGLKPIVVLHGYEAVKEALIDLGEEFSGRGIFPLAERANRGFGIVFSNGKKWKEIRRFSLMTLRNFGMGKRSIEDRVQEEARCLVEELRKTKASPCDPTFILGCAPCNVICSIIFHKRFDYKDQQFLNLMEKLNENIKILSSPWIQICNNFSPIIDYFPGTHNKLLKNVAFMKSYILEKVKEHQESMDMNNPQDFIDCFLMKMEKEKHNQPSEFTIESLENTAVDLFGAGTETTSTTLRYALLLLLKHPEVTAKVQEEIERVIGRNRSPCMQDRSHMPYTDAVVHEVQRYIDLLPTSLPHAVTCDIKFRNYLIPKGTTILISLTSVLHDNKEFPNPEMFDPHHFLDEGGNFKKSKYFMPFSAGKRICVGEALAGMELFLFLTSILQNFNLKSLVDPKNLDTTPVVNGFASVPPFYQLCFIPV

[15] = Physiological stability of the compound in simulated gastric fluids assessed as formation of 4-(8-amino-1-(8-fluoro-2-phenylquinolin-7-yl)imidazo[1,5-a]pyrazin-3-yl)cyclohexanecarboxylic acid at 2 uM; format: physicochemical; details: simulated gi fluid
Mus musculus [16] = experiment: Toxicity in human GEO cells xenografted nu/nu CD-1 mouse assessed as effect on blood glucose level at 60 mg/kg, po qd for 14 days; format: organism-based; parameters: dose 60 mg/kg, route oral; details: in vivo, 336 h
[17] = Antitumor activity against human GEO cells xenografted in nu/nu CD-1 mouse assessed as tumor growth inhibition at 60 mg/kg, po qd for 14 days; format: functional; details: 336 h, read-out: TGI
Cytochrome P450 1A2 = target: T1, Cytochrome P450 1A2 (Homo sapiens, UniProt P05177); experiment: Inhibition of CYP1A2; format: ADME
T1 sequence (P05177 whole entry): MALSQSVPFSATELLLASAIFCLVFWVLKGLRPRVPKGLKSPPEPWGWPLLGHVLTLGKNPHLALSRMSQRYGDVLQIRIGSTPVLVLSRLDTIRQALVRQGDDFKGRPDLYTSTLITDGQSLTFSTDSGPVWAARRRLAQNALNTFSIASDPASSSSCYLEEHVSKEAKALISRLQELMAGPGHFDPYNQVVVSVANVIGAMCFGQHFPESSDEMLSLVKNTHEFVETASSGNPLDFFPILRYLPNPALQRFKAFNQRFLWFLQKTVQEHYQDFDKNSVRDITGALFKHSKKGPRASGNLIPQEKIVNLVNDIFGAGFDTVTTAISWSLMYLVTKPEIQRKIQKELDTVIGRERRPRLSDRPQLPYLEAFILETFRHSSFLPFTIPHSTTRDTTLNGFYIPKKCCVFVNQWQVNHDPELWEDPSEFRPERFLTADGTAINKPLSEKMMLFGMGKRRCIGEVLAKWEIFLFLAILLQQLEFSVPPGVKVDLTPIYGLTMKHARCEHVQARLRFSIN

[18] = Genotoxicity in Salmonella Typhimurium by Ames test in presence of S9 fractions; format: toxicity, S9 Fraction; details: salmonella enterica subsp. enterica serovar typhimurium
Mus musculus [19] = experiment: Toxicity in human GEO cells xenografted nu/nu CD-1 mouse assessed as mortality at 60 mg/kg, po qd for 14 days; format: organism-based; parameters: dose 60 mg/kg, route oral; details: in vivo, 336 h
Cytochrome P450 3A4 = Cytochrome P450 3A4 (Homo sapiens, UniProt P08684); experiment: Inhibition of CYP3A4; format: ADME
Chain of Cytochrome P450 3A4 (P08684 whole entry): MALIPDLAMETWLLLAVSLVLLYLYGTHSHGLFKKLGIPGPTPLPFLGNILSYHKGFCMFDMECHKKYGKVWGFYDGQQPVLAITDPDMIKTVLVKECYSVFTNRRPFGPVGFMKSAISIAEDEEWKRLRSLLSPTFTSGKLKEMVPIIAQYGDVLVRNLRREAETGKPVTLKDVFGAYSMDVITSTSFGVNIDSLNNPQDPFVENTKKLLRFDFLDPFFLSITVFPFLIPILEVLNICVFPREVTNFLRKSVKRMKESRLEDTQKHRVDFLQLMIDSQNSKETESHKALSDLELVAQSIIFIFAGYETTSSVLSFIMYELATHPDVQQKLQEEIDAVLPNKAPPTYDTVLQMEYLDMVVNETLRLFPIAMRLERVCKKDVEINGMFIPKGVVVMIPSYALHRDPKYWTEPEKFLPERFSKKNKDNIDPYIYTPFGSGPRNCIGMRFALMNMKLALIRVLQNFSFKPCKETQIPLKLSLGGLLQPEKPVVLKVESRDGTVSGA

Cytochrome P450 2D6 = Cytochrome P450 2D6 (Homo sapiens, UniProt P10635); experiment: Inhibition of CYP2D6; format: ADME
Chain of Cytochrome P450 2D6 (P10635 whole entry): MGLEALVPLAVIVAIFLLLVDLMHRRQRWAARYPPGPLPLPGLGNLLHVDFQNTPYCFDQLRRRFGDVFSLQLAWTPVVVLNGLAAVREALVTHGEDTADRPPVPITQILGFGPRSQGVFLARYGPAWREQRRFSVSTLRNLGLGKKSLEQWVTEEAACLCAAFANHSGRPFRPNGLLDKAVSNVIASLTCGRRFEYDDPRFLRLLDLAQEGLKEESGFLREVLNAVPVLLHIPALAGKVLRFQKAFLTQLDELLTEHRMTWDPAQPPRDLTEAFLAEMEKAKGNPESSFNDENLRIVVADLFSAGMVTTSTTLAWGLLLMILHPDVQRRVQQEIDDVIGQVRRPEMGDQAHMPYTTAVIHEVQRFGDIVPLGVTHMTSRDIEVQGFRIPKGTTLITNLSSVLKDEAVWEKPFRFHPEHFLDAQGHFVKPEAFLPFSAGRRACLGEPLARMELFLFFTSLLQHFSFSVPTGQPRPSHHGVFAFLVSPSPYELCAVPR

Cytochrome P450 2C19 = Cytochrome P450 2C19 (Homo sapiens, UniProt P33261); experiment: Inhibition of CYP2C19; format: ADME
Chain of Cytochrome P450 2C19 (P33261 whole entry): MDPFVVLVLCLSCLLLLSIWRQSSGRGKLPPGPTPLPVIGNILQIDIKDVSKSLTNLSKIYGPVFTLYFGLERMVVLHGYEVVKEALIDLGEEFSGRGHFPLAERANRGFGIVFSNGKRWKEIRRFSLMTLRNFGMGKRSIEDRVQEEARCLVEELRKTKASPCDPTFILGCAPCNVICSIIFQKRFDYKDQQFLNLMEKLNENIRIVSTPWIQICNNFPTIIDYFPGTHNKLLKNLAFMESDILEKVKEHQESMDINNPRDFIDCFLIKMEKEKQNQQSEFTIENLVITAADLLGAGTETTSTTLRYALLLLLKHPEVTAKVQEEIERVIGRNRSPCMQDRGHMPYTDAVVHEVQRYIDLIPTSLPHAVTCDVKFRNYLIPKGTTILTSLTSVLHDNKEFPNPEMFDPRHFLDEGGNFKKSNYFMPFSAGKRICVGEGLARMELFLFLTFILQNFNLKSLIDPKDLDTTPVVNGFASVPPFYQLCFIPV

Compound	Papp [2] [×10⁻⁶ cm/s]	Papp [3] [×10⁻⁶ cm/s]	bioavailability [8] [%]	AUC [9] [ng·h/mL]	Cmax [10] [nM]	Vd [11] [L/kg]	clearance [12] [mL/min/kg]	further results
Nc1nccn2c1c(-c1ccc3ccc(-c4ccccc4)nc3c1F)nc2[C@H]1CC[C@H](CO)CC1	> 1000	880	–	–	–	–	–	AUC [1]: 100 ng·h/mL; Cmax [4]: 110 nM; bioavailability [5]: 23%; clearance [6]: 197 mL/min/kg; Vd [7]: 7 L/kg
Nc1nccn2c1c(-c1ccc3ccc(-c4ccccc4)nc3c1F)nc2[C@H]1CC[C@H](C(=O)O)CC1	> 1000	> 1000	51	7970	5500	2.8	26	–
Nc1nccn2c1c(-c1ccc3ccc(-c4ccccc4)nc3c1F)nc2[C@H]1CC[C@H](C(N)=O)CC1	63	45	24	3570	1900	2.6	38	–
Nc1nccn2c1c(-c1ccc3ccc(-c4ccccc4)nc3c1F)nc2[C@H]1CC[C@H](C(=O)Nc2nncs2)CC1	86	73	5	297	130	3.2	73	Stability [13]: Unstable
Nc1nccn2c1c(-c1ccc3ccc(-c4ccccc4)nc3c1F)nc2[C@H]1CC[C@H](C(=O)Nc2nc3ccccc3[nH]2)CC1	766	538	50	158000	28000	0.43	1	Stability [14]: Stable; IC50 (Cytochrome P450 2C9): 9.8 µM; Stability [15]: Stable; Activity (Mus musculus [16]): Non-toxic; inhibition in vivo at 60 mg/kg [17]: 98%; IC50 (Cytochrome P450 1A2): > 20 µM; Activity [18]: Non-toxic; Activity (Mus musculus [19]): Non-toxic; IC50 (Cytochrome P450 3A4): > 20 µM; IC50 (Cytochrome P450 2D6): > 20 µM; IC50 (Cytochrome P450 2C19): > 20 µM
